Measurements as given in ChEMBL document CHEMBL1124557, “Pentadienyl carboxamide derivatives as antagonists of platelet-activating factor” (J Med Chem, 1989).

Experiments:
Cavia porcellus [1] = assay: Inhibition of PAF-induced bronchoconstriction in guinea pig 2 hr after p.o. administration.; assay type: functional; conditions: po, read-out: ID50 (the source's name)
[2] = molecular target: Platelet-activating factor receptor (Cavia porcellus) (UniProt P21556); assay: Ability to prevent PAF-induced bronchoconstriction in guinea pig 2 hr after administration (50 mg/kg perorally); assay type: functional, organism-based
[3] = molecular target: Platelet-activating factor receptor (Cavia porcellus) (UniProt P21556); assay: Ability to prevent PAF-induced bronchoconstriction in guinea pig when administered intravenously; assay type: functional
Cavia porcellus [4] = assay: Ability to prevent PAF-induced bronchoconstriction in guinea pig when administered at a dose of 1 mg/kg intravenously; assay type: functional; conditions: route intravenous
Cavia porcellus [5] = assay: Ability to prevent PAF-induced bronchoconstriction in guinea pig 6 hr following 50 mg/kg p.o. administration.; assay type: functional; conditions: route oral
Cavia porcellus [6] = assay: Inhibitory activity against bronchoconstriction in guinea pig 2 hr after peroral administration of compound; assay type: functional; conditions: Lung, po, read-out: ID50 (the source's name)
Rattus norvegicus [7] = assay: PAF-induced capillary permeability changes are studied in rat skin test, after peroral administration of the compound; assay type: functional; conditions: po, read-out: ID50 (the source's name)
Cavia porcellus [8] = assay: PAF-induced capillary permeability changes are studied in guinea pig test, after intravenous administration of the compound; assay type: functional; conditions: read-out: ID50 (the source's name)
Rattus norvegicus [9] = assay: PAF-induced capillary permeability changes are studied in rat skin test, after intravenous administration of the compound; assay type: functional; conditions: read-out: ID50 (the source's name)
Cavia porcellus [10] = assay: PAF-induced capillary permeability changes are studied in guinea pig skin test, after peroral administration of the compound; assay type: functional; conditions: po, read-out: ID50 (the source's name)
[11] = tested on: Platelet-activating factor receptor (Canis familiaris); assay: Compound was evaluated for inhibition of platelet activating factor binding activity in dog platelets using [3H]PAF as radioligand; NA means inactive
Cavia porcellus [12] = assay: Ability to prevent PAF-induced bronchoconstriction in guinea pig when administered dose 0.5 mg/kg intravenously; assay type: functional; conditions: route intravenous
Cavia porcellus [13] = assay: Ability to prevent PAF-induced bronchoconstriction in guinea pig 2 hr after administration of compound (50 mg/kg perorally); assay type: functional; conditions: po, read-out: ID50 (the source's name)
Cavia porcellus [14] = assay: Ability to prevent PAF-induced bronchoconstriction in guinea pig when administered dose 1 mg/kg intravenously; assay type: functional; conditions: route intravenous

Platelet-activating factor receptor (Cavia porcellus), sequence (P21556 whole entry): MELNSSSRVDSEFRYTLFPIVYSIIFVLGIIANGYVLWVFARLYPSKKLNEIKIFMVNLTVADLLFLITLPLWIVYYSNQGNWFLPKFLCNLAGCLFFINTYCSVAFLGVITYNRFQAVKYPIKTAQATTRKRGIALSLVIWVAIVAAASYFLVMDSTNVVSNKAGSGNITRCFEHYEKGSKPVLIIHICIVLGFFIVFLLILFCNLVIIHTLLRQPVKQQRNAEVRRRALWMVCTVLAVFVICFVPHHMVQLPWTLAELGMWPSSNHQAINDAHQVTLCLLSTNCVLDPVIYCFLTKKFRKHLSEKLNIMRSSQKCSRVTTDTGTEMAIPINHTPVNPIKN

Row | Compound | ED50 (Cavia porcellus [1]) [mg/kg] | inhibition [2] [%] | ID50 [3] [mg/kg] | inhibition in vivo at 1 mg/kg (Cavia porcellus [4]) [%] | inhibition in vivo at 50 mg/kg (Cavia porcellus [5]) [%] | also measured
1 | COc1ccc(/C(=C/C=C/C(=O)N[C@H](C)CCCc2cccnc2)C2CCCCC2)cc1 | 10 | 97 | 0.21 | 73 | 12 | –
2 | Cc1ccc(C(=C/C=C/C(=O)N[C@H](C)CCCc2cccnc2)c2ccc(C)cc2)cc1 | 18 | 91 | 0.3 | 97 | 14 | –
3 | COc1ccc(C(=C/C=C/C(=O)N[C@H](C)CCCc2cccnc2)c2ccc(OC)cc2)cc1 | – | 98 | 0.25 | 98 | 93 | ED50 (Cavia porcellus [6]): 4 mg/kg; ED50 (Rattus norvegicus [7]): 25 mg/kg; ED50 (Cavia porcellus [8]): 15 mg/kg; ED50 (Rattus norvegicus [9]): 2 mg/kg; ED50 (Cavia porcellus [10]): 75 mg/kg
4 | O=C(CCCCCC=C(c1ccccc1)c1ccccc1)NCCCCc1cccnc1 | – | – | – | – | – | IC50 [11]: Not Active
5 | CC[C@H](CCCc1cccnc1)NC(=O)/C=C/C=C(c1ccc(OC)cc1)c1ccc(OC)cc1 | 6 | 99 | 0.16 | 99 | 85 | –
6 | CCCC/C(=C\C=C\C(=O)N[C@H](C)CCCc1cccnc1)c1ccc(OC)cc1 | 12 | 98 | 0.68 | 99 | 69 | –
7 | O=C(CCCCC=C(c1ccccc1)c1ccccc1)NCCCCc1cccnc1 | – | – | – | – | – | inhibition in vivo at 0.5 mg/kg (Cavia porcellus [12]): 15%
8 | O=C(CC=C(c1ccccc1)c1ccccc1)NCCCCc1cccnc1 | – | – | – | – | – | IC50 [11]: Not Active
9 | O=C(C=C(c1ccccc1)c1ccccc1)NCCCCc1cccnc1 | – | 28 | 0.58 | – | – | inhibition in vivo at 0.5 mg/kg (Cavia porcellus [12]): 66%
10 | O=C(/C=C/C=C(c1cccc(F)c1)c1cccc(F)c1)NCCCCc1cccnc1 | – | 37 | 0.34 | 71 | – | ED50 (Cavia porcellus [6]): 50 mg/kg
11 | C[C@H](CCCc1cccnc1)NC(=O)/C=C/C=C(c1cccc(F)c1)c1cccc(F)c1 | 37 | 91 | 0.22 | 73 | 87 | –
12 | Cc1ccc(C(=C/C=C/C(=O)NCCCCc2cccnc2)c2ccc(C)cc2)cc1 | 43 | 67 | 0.26 | 95 | 11 | –
13 | O=C(/C=C/C=C(c1ccc(F)cc1)c1ccc(F)cc1)NCCCCc1cccnc1 | – | 89 | 0.38 | 91 | – | ED50 (Cavia porcellus [6]): 28 mg/kg
14 | O=C(C/C=C/C=C(c1ccccc1)c1ccccc1)NCCCCc1cccnc1 | – | 35 | – | – | – | inhibition in vivo at 0.5 mg/kg (Cavia porcellus [12]): 60%; ED50 (Cavia porcellus [13]): 0.62 mg/kg
15 | COc1ccc(/C(=C/C=C/C(=O)N[C@H](C)CCCc2cccnc2)c2ccccc2)cc1 | – | 95 | 0.16 | 89 | 53 | –
16 | O=C(/C=C\C=C(c1ccccc1)c1ccccc1)NCCCCc1cccnc1 | – | – | – | – | – | inhibition in vivo at 0.5 mg/kg (Cavia porcellus [12]): -1%
17 | COc1ccc(C(=C/C=C/C(=O)N[C@@H](CCCc2cccnc2)C2CC2)c2ccc(OC)cc2)cc1 | 6 | 99 | 0.2 | 98 | 82 | –

Row | Compound | ED50 (Cavia porcellus [1]) [mg/kg] | inhibition [2] [%] | ID50 [3] [mg/kg] | inhibition in vivo at 1 mg/kg (Cavia porcellus [4]) [%] | inhibition in vivo at 50 mg/kg (Cavia porcellus [5]) [%] | also measured
18 | CC/C(=C\C=C\C(=O)N[C@H](C)CCCc1cccnc1)c1ccc(OC)cc1 | 35 | 84 | 0.68 | 72 | 9 | –
19 | O=C(CCC=C(c1ccccc1)c1ccccc1)NCCCCc1cccnc1 | – | – | – | – | – | inhibition in vivo at 0.5 mg/kg (Cavia porcellus [12]): 21%
20 | O=C(CCCC=C(c1ccccc1)c1ccccc1)NCCCCc1cccnc1 | – | – | – | – | – | IC50 [11]: Not Active
21 | COc1ccc(C(=C/C=C/C(=O)NCCCCc2cccnc2)c2ccc(OC)c(OC)c2)cc1OC | 27 | 71 | 0.54 | 78 | 17 | –
22 | COc1ccc(/C(=C/C=C/C(=O)N[C@H](C)CCCc2cccnc2)C(C)C)cc1 | 30 | 71 | 0.41 | 89 | 20 | –
23 | COc1ccc(C(=C/C=C/C(=O)N[C@@H](C)CCCc2cccnc2)c2ccc(OC)cc2)cc1 | 29 | 90 | 0.84 | 59 | 56 | –
24 | COc1cccc(C(=C/C=C/C(=O)N[C@H](C)CCCc2cccnc2)c2cccc(OC)c2)c1 | 29 | 86 | 0.21 | 88 | 12 | –
25 | COc1cccc(C(=C/C=C/C(=O)NCCCCc2cccnc2)c2cccc(OC)c2)c1 | 80 | 31 | 0.36 | 69 | – | –
26 | COc1ccc(C(=C/C=C/C(=O)NCCCCc2cccnc2)c2ccc(OC)cc2)cc1 | 12 | 82 | 0.25 | 92 | 71 | –
27 | COc1ccc(C(=C/C=C/C(=O)N[C@H](C)CCCc2cccnc2)c2ccc(OC)c(OC)c2)cc1OC | 26 | 67 | 0.14 | 99 | 2 | –
28 | Cc1nnc2n1-c1sc(CCC(=O)N3CCOCC3)cc1C(c1ccccc1Cl)=NC2 [APAFANT] | 1 | 100 | 0.03 | 99 | 100 | ED50 (Rattus norvegicus [7]): 45 mg/kg; ED50 (Cavia porcellus [8]): 2.5 mg/kg; ED50 (Rattus norvegicus [9]): 0.64 mg/kg; ED50 (Cavia porcellus [10]): 35 mg/kg
29 | COc1ccc(C(=C/C=C/C(=O)Nc2ccc(-c3cccnc3)cc2)c2ccc(OC)cc2)cc1 | 29 | 82 | 0.15 | 97 | 77 | –
30 | COc1ccc(C(=C/C=C/C(=O)N[C@@H](CCCc2cccnc2)C(C)C)c2ccc(OC)cc2)cc1 | 26 | 57 | 0.43 | 87 | – | –
31 | CCCCCC/C(=C\C=C\C(=O)N[C@H](C)CCCc1cccnc1)c1ccc(OC)cc1 | 8 | 96 | 0.07 | – | 14 | inhibition in vivo at 1 mg/kg (Cavia porcellus [14]): 100%
32 | CCCCC/C(=C\C=C\C(=O)N[C@H](C)CCCc1cccnc1)c1ccc(OC)cc1 | – | 100 | 0.05 | 99 | 71 | ED50 (Cavia porcellus [6]): 16 mg/kg; ED50 (Rattus norvegicus [7]): 70 mg/kg; ED50 (Cavia porcellus [8]): 3 mg/kg; ED50 (Rattus norvegicus [9]): 1.7 mg/kg; ED50 (Cavia porcellus [10]): 65 mg/kg
33 | CCCCCCCC/C(=C\C=C\C(=O)N[C@H](C)CCCc1cccnc1)c1ccc(OC)cc1 | 13 | 84 | 0.1 | 98 | 27 | –
